Results taken from patent publication US7138361B2, “Herbicidal heterocycles” (E. I. du Pont de Nemours and Company, priority 2000, dated 2006).

Key:
Experiment in all cases: Test C preemergence
Type in all cases: in vivo
Sunflower [1] = test system: Sunflower
Excerpt: (§1) Seeds of plant species selected from bermudagrass (Cynodon dactylon), Surinam grass (Brachiaria decumbens), cocklebur (Xanthium strumarium), corn (Zea mays), crabgrass (Digitaria sanguinalis), woolly cupgrass (Eriochloa villosa), giant foxtail (Setaria faberii), goosegrass (Eleusine indica), johnsongrass (Sorghum halepense), kochia (Kochia scoparia), lambsquarters (Chenopodium album), morningglory (Ipomoea hederacea), yellow nutsedge (Cyperus esculentus), pigweed (Amaranthus retroflexus), common ragweed (Ambrosia elatior), soybean (Glycine max) and velvetleaf (Abutilon theophrasti) were planted and treated preemergence with test chemicals formulated in a non-phytotoxic solvent mixture which included a surfactant.
(§2) At the same time, plants selected from these crop and weed species and also winter barley (Hordeum vulgare), blackgrass (Alopecurus myosuroides), canary grass (Phalaris minor), chickweed (Stellaria media), downy brome (Bromus tectorum), green foxtail (Setaria viridis), Italian ryegrass (Lolium multiflorum), wheat (Triticum aestivum), wild oat (Avena fatua) and windgrass (Apera spica-venti) were treated with postemergence applications of some of the test chemicals formulated in the same manner. Plants ranged in height from 2 to 18 cm (1- to 4-leaf stage) for postemergence treatments. Plant species in the flooded paddy test consisted of rice (Oryza saliva), smallflower flatsedge (Cyperus difformis), duck salad (Heteranthera limosa) and barnyardgrass (Echinochloa crus-galli) grown to the 2-leaf stage for testing. Treated plants and controls were maintained in a greenhouse for 12 to 14 days, after which time all species were compared to controls and visually evaluated. Plant response ratings, summarized in Table C, are based on a scale of 0 to 100 where 0 is no effect and 100 is complete control. A dash (-) response means no test result.

[2] = test system: johnsongrass (Sorghum halepense); conditions: for Plant response rating (0 to 100), Johnsongrass: Rate 250 g/ha, visual evaluation after 12 to 14 days
Excerpt: as §1, §2

[3] = test system: Surinam grass (Brachiaria decumbens); conditions: for Plant response rating (0 to 100), Surinam grass: Rate 250 g/ha, visual evaluation after 12 to 14 days
Excerpt: as §1, §2

[4] = test system: common ragweed (Ambrosia elatior); conditions: for Plant response rating (0 to 100), Ragweed, Common: Rate 250 g/ha, visual evaluation after 12 to 14 days
Excerpt: as §1, §2

[5] = test system: goosegrass (Eleusine indica); conditions: for Plant response rating (0 to 100), Goosegrass: Rate 250 g/ha, visual evaluation after 12 to 14 days
Excerpt: as §1, §2

[6] = test system: morningglory (Ipomoea hederacea); conditions: for Plant response rating (0 to 100), Morningglory: Rate 250 g/ha, visual evaluation after 12 to 14 days
Excerpt: as §1, §2

[7] = test system: pigweed (Amaranthus retroflexus); conditions: for Plant response rating (0 to 100), Pigweed: Rate 250 g/ha, visual evaluation after 12 to 14 days
Excerpt: as §1, §2

[8] = test system: woolly cupgrass (Eriochloa villosa); conditions: for Plant response rating (0 to 100), Cupgrass, Woolly: Rate 250 g/ha, visual evaluation after 12 to 14 days
Excerpt: as §1, §2

Nightshade = test system: Nightshade
Excerpt: as §1, §2

soybean (Glycine max) = conditions: for Plant response rating (0 to 100), Soybean: Rate 250 g/ha, visual evaluation after 12 to 14 days
Excerpt: as §1, §2

[9] = test system: giant foxtail (Setaria faberii); conditions: for Plant response rating (0 to 100), Foxtail, Giant: Rate 250 g/ha, visual evaluation after 12 to 14 days
Excerpt: as §1, §2

[10] = test system: velvetleaf (Abutilon theophrasti); conditions: for Plant response rating (0 to 100), Velvetleaf: Rate 250 g/ha, visual evaluation after 12 to 14 days
Excerpt: as §1, §2

[11] = test system: cocklebur (Xanthium strumarium); conditions: for Plant response rating (0 to 100), Cocklebur: Rate 250 g/ha, visual evaluation after 12 to 14 days
Excerpt: as §1, §2

[12] = test system: crabgrass (Digitaria sanguinalis); conditions: for Plant response rating (0 to 100), Crabgrass: Rate 250 g/ha, visual evaluation after 12 to 14 days
Excerpt: as §1, §2

[13] = test system: yellow nutsedge (Cyperus esculentus); conditions: for Plant response rating (0 to 100), Nutsedge: Rate 250 g/ha, visual evaluation after 12 to 14 days
Excerpt: as §1, §2

[14] = test system: bermudagrass (Cynodon dactylon); conditions: for Plant response rating (0 to 100 where 0 is no effect and 100 is complete control), Bermudagrass: Rate 250 g/ha, visual evaluation after 12 to 14 days
Excerpt: as §1, §2

[15] = test system: lambsquarters (Chenopodium album); conditions: for Plant response rating (0 to 100), Lambsquarters: Rate 250 g/ha, visual evaluation after 12 to 14 days
Excerpt: as §1, §2

corn (Zea mays) = conditions: for Plant response rating (0 to 100), Corn: Rate 250 g/ha, visual evaluation after 12 to 14 days
Excerpt: as §1, §2

Sunflower [16] = conditions: Rate 125 g/ha, scale 0 to 100, 0 no effect, 100 complete control
[17] = Rate 62 g/ha, scale 0 to 100, 0 no effect, 100 complete control
[18] = Preemergence, Rate 500 g/ha, scale 0 to 100
[19] = preemergence, Rate 125 g/ha, scale 0 to 100, 0 no effect, 100 complete control
[20] = Rate 125 g/ha, scale 0 to 100, 0 no effect, 100 complete control

## CC(C)c1ccn(C2SCN(c3cccc(OC(F)(F)F)c3)C2=O)n1 (stereo not drawn) [Compound 31]
Sunflower [1]; [17]
  Plant response rating, Sunflower: 20
Sunflower [1]; Rate 500 g/ha, scale 0 to 100
  Plant response rating, Sunflower: 40
[2]; [18]
  Plant response rating, Johnsongrass: 100
[2]; [17]
  Plant response rating, Johnsongrass: 30
[2]; preemergence
  Plant response rating (0 to 100), Johnsongrass: 90
[2]; [19]
  Plant response rating, Johnsongrass: 60
[3]; [18]
  Plant response rating, Surinam grass: 70
[3]; [17]
  Plant response rating, Surinam grass: 50
[3]; preemergence
  Plant response rating (0 to 100), Surinam grass: 60
[3]; [19]
  Plant response rating, Surinam grass: 50
[4]; [18]
  Plant response rating, Ragweed, Common: 100
[4]; [17]
  Plant response rating, Ragweed, Common: 30
[4]; preemergence
  Plant response rating (0 to 100), Ragweed, Common: 90
[4]; [19]
  Plant response rating, Ragweed, Common: 90
[5]; [18]
  Plant response rating, Goosegrass: 100
[5]; [17]
  Plant response rating, Goosegrass: 100
[5]; preemergence
  Plant response rating (0 to 100), Goosegrass: 100
[5]; [19]
  Plant response rating, Goosegrass: 100
[6]; [18]
  Plant response rating, Morningglory: 50
[6]; [17]
  Plant response rating, Morningglory: 30
[6]; preemergence
  Plant response rating (0 to 100), Morningglory: 40
[6]; [19]
  Plant response rating, Morningglory: 30
[7]; [18]
  Plant response rating, Pigweed: 90
[7]; [17]
  Plant response rating, Pigweed: 30
[7]; preemergence
  Plant response rating (0 to 100), Pigweed: 80
[7]; [19]
  Plant response rating, Pigweed: 100
[8]; [18]
  Plant response rating, Cupgrass, Woolly: 100
[8]; [17]
  Plant response rating, Cupgrass, Woolly: 50
[8]; preemergence
  Plant response rating (0 to 100), Cupgrass, Woolly: 90
[8]; [19]
  Plant response rating, Cupgrass, Woolly: 60
Nightshade; [17]
  Plant response rating, Nightshade: 80
Nightshade; [20]
  Plant response rating, Nightshade: 90
Nightshade; Rate 500 g/ha, scale 0 to 100
  Plant response rating, Nightshade: 100
Soybean (Glycine max); [18]
  Plant response rating, Soybean: 0
Soybean (Glycine max); [17]
  Plant response rating, Soybean: 0
Soybean (Glycine max); preemergence
  Plant response rating (0 to 100), Soybean: 0
Soybean (Glycine max); [19]
  Plant response rating, Soybean: 0
[9]; [18]
  Plant response rating, Foxtail, Giant: 100
[9]; [17]
  Plant response rating, Foxtail, Giant: 40
[9]; preemergence
  Plant response rating (0 to 100), Foxtail, Giant: 60
[9]; [19]
  Plant response rating, Foxtail, Giant: 50
[10]; [18]
  Plant response rating, Velvetleaf: 30
[10]; [17]
  Plant response rating, Velvetleaf: 0
[10]; preemergence
  Plant response rating (0 to 100), Velvetleaf: 30
[10]; [19]
  Plant response rating, Velvetleaf: 0
[11]; [18]
  Plant response rating, Cocklebur: 30
[11]; [17]
  Plant response rating, Cocklebur: 0
[11]; preemergence
  Plant response rating (0 to 100), Cocklebur: 30
[11]; [19]
  Plant response rating, Cocklebur: 0
[12]; [18]
  Plant response rating, Crabgrass: 100
[12]; [17]
  Plant response rating, Crabgrass: 100
[12]; preemergence
  Plant response rating (0 to 100), Crabgrass: 100
[12]; [19]
  Plant response rating, Crabgrass: 100
[13]; [18]
  Plant response rating, Nutsedge: 90
[13]; [17]
  Plant response rating, Nutsedge: 40
[13]; preemergence
  Plant response rating (0 to 100), Nutsedge: 70
[13]; [19]
  Plant response rating, Nutsedge: 50
[14]; [18]
  Plant response rating, Bermudagrass: 100
[14]; [17]
  Plant response rating, Bermudagrass: 90
[14]; preemergence
  Plant response rating (0 to 100 where 0 is no effect and 100 is complete control), Bermudagrass: 100
[14]; [19]
  Plant response rating, Bermudagrass: 100
[15]; [18]
  Plant response rating, Lambsquarters: 100
[15]; [17]
  Plant response rating, Lambsquarters: 100
[15]; preemergence
  Plant response rating (0 to 100), Lambsquarters: 100
[15]; [19]
  Plant response rating, Lambsquarters: 100
Corn (Zea mays); [18]
  Plant response rating, Corn: 60
Corn (Zea mays); [17]
  Plant response rating, Corn: 40
Corn (Zea mays); preemergence
  Plant response rating (0 to 100), Corn: 40
Corn (Zea mays); [19]
  Plant response rating, Corn: 40
Sunflower [16]
  Plant response rating, Sunflower: 30

## CCC(C)c1ccn(C2SCN(c3cccc(OC(F)(F)F)c3)C2=O)n1 (stereo not drawn) [Compound 32]
Sunflower [1]; [17]
  Plant response rating, Sunflower: 0
Sunflower [1]; Rate 500 g/ha, scale 0 to 100
  Plant response rating, Sunflower: 70
[2]; [18]
  Plant response rating, Johnsongrass: 90
[2]; [17]
  Plant response rating, Johnsongrass: 30
[2]; preemergence
  Plant response rating (0 to 100), Johnsongrass: 90
[2]; [19]
  Plant response rating, Johnsongrass: 40
[3]; [18]
  Plant response rating, Surinam grass: 90
[3]; [17]
  Plant response rating, Surinam grass: 70
[3]; preemergence
  Plant response rating (0 to 100), Surinam grass: 80
[3]; [19]
  Plant response rating, Surinam grass: 80
[4]; [18]
  Plant response rating, Ragweed, Common: 100
[4]; [17]
  Plant response rating, Ragweed, Common: 0
[4]; preemergence
  Plant response rating (0 to 100), Ragweed, Common: 90
[4]; [19]
  Plant response rating, Ragweed, Common: 0
[5]; [18]
  Plant response rating, Goosegrass: 100
[5]; [17]
  Plant response rating, Goosegrass: 100
[5]; preemergence
  Plant response rating (0 to 100), Goosegrass: 100
[5]; [19]
  Plant response rating, Goosegrass: 100
[6]; [18]
  Plant response rating, Morningglory: 80
[6]; [17]
  Plant response rating, Morningglory: 30
[6]; preemergence
  Plant response rating (0 to 100), Morningglory: 50
[6]; [19]
  Plant response rating, Morningglory: 40
[7]; [18]
  Plant response rating, Pigweed: 80
[7]; [17]
  Plant response rating, Pigweed: 70
[7]; preemergence
  Plant response rating (0 to 100), Pigweed: 70
[7]; [19]
  Plant response rating, Pigweed: 20
[8]; [18]
  Plant response rating, Cupgrass, Woolly: 90
[8]; [17]
  Plant response rating, Cupgrass, Woolly: 60
[8]; preemergence
  Plant response rating (0 to 100), Cupgrass, Woolly: 90
[8]; [19]
  Plant response rating, Cupgrass, Woolly: 70
Nightshade; [17]
  Plant response rating, Nightshade: 50
Nightshade; [20]
  Plant response rating, Nightshade: 50
Nightshade; Rate 500 g/ha, scale 0 to 100
  Plant response rating, Nightshade: 100
Soybean (Glycine max); [18]
  Plant response rating, Soybean: 60
Soybean (Glycine max); [17]
  Plant response rating, Soybean: 50
Soybean (Glycine max); preemergence
  Plant response rating (0 to 100), Soybean: 60
Soybean (Glycine max); [19]
  Plant response rating, Soybean: 50
[9]; [18]
  Plant response rating, Foxtail, Giant: 100
[9]; [17]
  Plant response rating, Foxtail, Giant: 70
[9]; preemergence
  Plant response rating (0 to 100), Foxtail, Giant: 100
[9]; [19]
  Plant response rating, Foxtail, Giant: 50
[10]; [18]
  Plant response rating, Velvetleaf: 40
[10]; [17]
  Plant response rating, Velvetleaf: 0
[10]; preemergence
  Plant response rating (0 to 100), Velvetleaf: 0
[10]; [19]
  Plant response rating, Velvetleaf: 0
[11]; [18]
  Plant response rating, Cocklebur: 0
[11]; [17]
  Plant response rating, Cocklebur: 0
[11]; preemergence
  Plant response rating (0 to 100), Cocklebur: 0
[12]; [18]
  Plant response rating, Crabgrass: 100
[12]; [17]
  Plant response rating, Crabgrass: 100
[12]; preemergence
  Plant response rating (0 to 100), Crabgrass: 100
[12]; [19]
  Plant response rating, Crabgrass: 100
[13]; [18]
  Plant response rating, Nutsedge: 60
[13]; preemergence
  Plant response rating (0 to 100), Nutsedge: 50
[13]; [19]
  Plant response rating, Nutsedge: 50
[14]; [18]
  Plant response rating, Bermudagrass: 100
[14]; [17]
  Plant response rating, Bermudagrass: 50
[14]; preemergence
  Plant response rating (0 to 100 where 0 is no effect and 100 is complete control), Bermudagrass: 100
[14]; [19]
  Plant response rating, Bermudagrass: 90
[15]; [18]
  Plant response rating, Lambsquarters: 100
[15]; [17]
  Plant response rating, Lambsquarters: 100
[15]; preemergence
  Plant response rating (0 to 100), Lambsquarters: 100
[15]; [19]
  Plant response rating, Lambsquarters: 100
Corn (Zea mays); [18]
  Plant response rating, Corn: 60
Corn (Zea mays); [17]
  Plant response rating, Corn: 40
Corn (Zea mays); preemergence
  Plant response rating (0 to 100), Corn: 50
Corn (Zea mays); [19]
  Plant response rating, Corn: 50
Sunflower [16]
  Plant response rating, Sunflower: 0
